Experimental data reported in EP0237516A1, “Benzyl-pyrimidine derivatives, process for their preparation and compositions containing them” (COMPAGNIE ROUSSELOT, Société Anonyme:, priority 1986, dated 1987).
In brackets after ≈: the same amount, converted by molar mass. Read-outs that look alike come from different tables or passages of the source.

Experiments:
[1] = tested on: souches de Staphylococcus aureus résistant à la triméthoprime; assay: Bacteriostatic activity by disc diffusion on Mueller-Hinton agar; type: cell-based; conditions: 5 µg per disc, free base, read-out: Diamètre d'inhibition
Protocol: On utilise à cet effet le milieu gélosé de MUELLER-HINTON que l'on ensemence par inondation à partir d'une suspension bactérienne titrant 5 x 10⁶ à 1 x 10⁷ unités formant colonies par ml. On imprègne les disques (disque de 6 mm de diamètre de SCHLEICHER et SCHULL) avec 20 µl d'une solution de chaque composé à étudier de façon à obtenir une charge de 5 µg par disque. A titre de contrôle lors de chaque manipulation, on charge également un disque avec 5 µg de triméthoprime. On néglige également dans ce test les microcolonies qui peuvent apparaître à l'intérieur des zones d'inhibition.
On a obtenu les résultats suivants exprimés en mm d'inhibition, avec des composés de l'invention sous forme basique comparativement à la triméthoprime. Ces résultats ont été enregistrés vis-à-vis de souches de Staphylococcus aureus résistant à la triméthoprime.

[2] = tested on: souches de Staphylococcus aureus résistant à la triméthoprime; assay: MIC determination by serial dilution on Mueller-Hinton agar; type: cell-based; conditions: 18 h, from hospitalised patients, compounds as free base, read-out: CMI
Protocol: (§1) A cet effet, on a déterminé l'activité bactériostatique par la méthode des antibiogrammes par dilution en milieu gélosé (milieu de MUELLER-HINTON déshydraté) et par diffusion en milieu gélosé.
(§2) On a utilisé le composé à étudier selon une gamme de concentrations de 0,625 à 640 µg/ml (progression de raison 2) à partir de solutions-mères titrant 640 µg/ml à 1280 µg/ml selon la solubilité du composé, toutes les dilutions ultérieures ayant été réalisées dans un mélange méthanol/eau à 20%.
(§3) On a procédé sur milieu gélosé de MUELLER-HINTON déshydraté, par la méthode des dilutions sériées, les concentrations finales en composé à étudier s'échelonnant de 0,0625 à 32 ou 64 µg/ml.
(§4) A cet effet, on ensemence des boîtes de PETRI à l'aide d'un inoculateur multiple (inoculum de 5 x 10³ à 1 x 10⁴ unités formant colonies par spot d'inoculation) et on enregistre le résultat après 18 h à 37°C en ne tenant pas compte des micro-colonies qui se développent parfois ni de la présence de moins de 4 colonies d'aspect normal.
Les composés sous forme basique, des Exemples 1 et 4 ont été étudiés comparativement à la triméthoprime (TMP) à l'égard de 4 souches provenant de malades hospitalisés.
A cet effet, on a solubilisé les composés à étudier sous forme basique dans un mélange comprenant 9 ml d'eau distillée, 1 ml de diméthylformamide et quelques gouttes d'acide iséthionique.

[3] = tested on: souches de Staphylococcus aureus résistant à la triméthoprime; assay: as above; type: cell-based; conditions: 18 h, compounds as isethionate, read-out: CMI
Escherichia coli = assay: MIC determination by serial dilution on Mueller-Hinton agar, trimethoprim-sensitive strains; type: cell-based; conditions: isethionates, read-out: CMI
Protocol: as §1, §2, §3, §4

Serratia marcescens = assay: as above; type: cell-based; conditions: 18 h; Serratia marcescens 56644; isethionates; read-out: CMI
Protocol: as §1, §2, §3, §4

Staphylococcus aureus = assay: as above; type: cell-based; conditions: isethionates, read-out: CMI
Protocol: as §1, §2, §3, §4

Listeria monocytogenes = assay: as above; type: cell-based; conditions: isethionates; for MIC: 18 h, Listeria monocytogenes 485, TMP-sensitive, read-out: CMI
Protocol: as §1, §2, §3, §4

[4] = tested on: 73 souches de bacilles à Gram -; assay: Activity against Gram-negative bacilli, count of resistant strains; type: cell-based; conditions: number of resistant strains out of 73 Gram-negative bacilli strains
From the text: (§5) L'action du composé de l'Exemple 21 a été étudiée comparativement à l'iséthionate de triméthoprime vis-à-vis de 73 souches de bacilles à Gram -. Des résultats trouvés, on a pu conclure que 33 souches étaient résistantes au sel de triméthoprime et 65 souches étaient résistantes au composé de l'Exemple 21.

bacilles à Gram - = assay: Activity in association with sulfamethoxazole; type: cell-based
From the text: as §5
Par contre, si on associe chacun de ces composés au sulfaméthoxazole, le spectre d'activité de l'association composé de l'Exemple 21/-sulfaméthoxazole est similaire à celui de l'association de triméthoprime/ sulfaméthoxazole.

[5] = Acute toxicity, intravenous; conditions: mouse, in vivo; mice, groups of 5, intravenous route; read-out: DL₅₀
Protocol: La toxicité aiguë des composés de l'invention a été déterminée sur des lots de 5 souris par voie intraveineuse. On a ainsi trouvé que la DL₅₀du composé de l'Exemple 9, selon cette voie d'administration, est de 157,4 mg/kg.

[6] = strain No. 23543, TMP-resistant
[7] = strain No. 33274, TMP-resistant
[8] = strain No. 40314, TMP-resistant
[9] = strain No. 57760, TMP-resistant
[10] = ATCC25922, 18 h, Escherichia coli ATCC 25922
[11] = ATCC6338, 18 h, Staphylococcus aureus ATCC 6338, TMP-sensitive
[12] = ATCC25923, 18 h, Staphylococcus aureus ATCC 25923, TMP-sensitive
[13] = Listeria monocytogenes 378, TMP-sensitive
[14] = Listeria monocytogenes 5921, TMP-sensitive
[15] = Listeria monocytogenes 6777, TMP-sensitive
[16] = 18 h, Staphylococcus aureus 18839, TMP-sensitive

With `COc1cc(Cc2cnc(N)nc2N)c(I)cc1OC1CCCC1` [Ex. 4, Diamino-2,4 (iodo-2 cyclopentyloxy-4 méthoxy-5 benzyl)-5 pyrimidine] the zone of inhibition at 5 µg/disc [1, 6] was 19 mm, the zone of inhibition at 5 µg/disc [1, 7] was 29 mm and the zone of inhibition at 5 µg/disc [1, 8] was 35 mm. The zone of inhibition at 5 µg/disc [1, 9] was 20 mm, the MIC [2, 6] was 2 µg/mL (≈ 4.54 µM) and the MIC [2, 7] was 0.25 µg/mL (≈ 0.568 µM). It also gave an MIC [2, 8] of under 0.06 µg/mL and an MIC [2, 9] of 2 µg/mL (≈ 4.54 µM).
`COc1cc(Cc2cnc(N)nc2N)c(I)cc1OC1CCCC1` [Ex. 18, Iséthionate de diamino-2,4 (iodo-2 cyclopentyloxy-4 méthoxy-5 benzyl)-5 pyrimidine] gave an MIC ([3]; strain No. 82, TMP-resistant) of 2 µg/mL (≈ 4.54 µM), an MIC ([3]; strain No. 87, TMP-resistant) of 2 µg/mL (≈ 4.54 µM) and an MIC ([3]; strain No. 102, TMP-resistant) of 4 µg/mL (≈ 9.09 µM). It also gave an MIC ([3]; strain No. 107, TMP-resistant) of 4 µg/mL (≈ 9.09 µM).
`COc1cc(Cc2cnc(N)nc2N)c(Br)cc1OC1CCCC1` [Ex. 21, Iséthionate de diamino-2,4 (bromo-2 cyclopentyloxy-4 méthoxy-5 benzyl)-5 pyrimidine] showed an MIC (Escherichia coli; 18 h, Escherichia coli 33430) of 16 µg/mL (≈ 40.7 µM), an MIC (Escherichia coli; [10]) of 32 µg/mL (≈ 81.4 µM) and an MIC (Serratia marcescens) of 16 µg/mL (≈ 40.7 µM). For the same compound, the MIC (Staphylococcus aureus; [11]) was 0.06 µg/mL (≈ 0.153 µM), the MIC (Staphylococcus aureus; [12]) was 0.5 µg/mL (≈ 1.27 µM) and the MIC (Listeria monocytogenes) was 0.06 µg/mL (≈ 0.153 µM). For the same compound, the CMI (Listeria monocytogenes; [13]) was 0,06 µg/ml, the CMI (Listeria monocytogenes; [14]) was 0,06 µg/ml and the CMI (Listeria monocytogenes; [15]) was 0,06 µg/ml. For the same compound, the “souches résistantes” value [4] was 65 souches, the MIC ([3]; strain No. 82, TMP-resistant) was 1 µg/mL (≈ 2.54 µM) and the MIC ([3]; strain No. 87, TMP-resistant) was 1 µg/mL (≈ 2.54 µM). It also gave an MIC ([3]; strain No. 101, TMP-resistant) of 2 µg/mL (≈ 5.09 µM), an MIC ([3]; strain No. 102, TMP-resistant) of 1 µg/mL (≈ 2.54 µM) and an MIC ([3]; strain No. 107, TMP-resistant) of 4 µg/mL (≈ 10.2 µM). For the same compound, the MIC ([3]; strain No. 109, TMP-resistant) was 0.5 µg/mL (≈ 1.27 µM), the “potentialisation du sulfaméthoxazole” value (bacilles à Gram -; compared with the trimethoprim salt) was “potentialise aussi bien le sulfaméthoxazole que ne le fait le sel de triméthoprime” and the “spectre d'activité de l'association” value (bacilles à Gram -; in association with sulfaméthoxazole, compared with the association triméthoprime/sulfaméthoxazole) was “similaire”.
Compound `COc1cc(Cc2cnc(N)nc2N)ccc1OC1CCCC1` [Composé X, reference compound] has an MIC (Escherichia coli; 18 h, Escherichia coli 33430) of over 64 µg/mL, an MIC (Escherichia coli; [10]) of over 64 µg/mL and an MIC (Serratia marcescens) of 32 µg/mL (≈ 102 µM). It also gave an MIC (Staphylococcus aureus; [16]) of 0.5 µg/mL (≈ 1.59 µM), an MIC (Staphylococcus aureus; [11]) of 0.25 µg/mL (≈ 0.795 µM) and an MIC (Staphylococcus aureus; [12]) of 1 µg/mL (≈ 3.18 µM). The MIC (Listeria monocytogenes) was 0.25 µg/mL (≈ 0.795 µM), the CMI (Listeria monocytogenes; [13]) was 0,25 µg/ml and the MIC ([3]; strain No. 82, TMP-resistant) was 32 µg/mL (≈ 102 µM). For the same compound, the MIC ([3]; strain No. 87, TMP-resistant) was 8 µg/mL (≈ 25.4 µM), the MIC ([3]; strain No. 101, TMP-resistant) was 32 µg/mL (≈ 102 µM) and the MIC ([3]; strain No. 102, TMP-resistant) was 32 µg/mL (≈ 102 µM).
`COc1cc(Cc2cnc(N)nc2N)cc(OC)c1OC` [Iséthionate de TMP, iséthionate de triméthoprime, reference compound] gave an MIC (Escherichia coli; 18 h, Escherichia coli 33430) of 8 µg/mL (≈ 27.6 µM), an MIC (Escherichia coli; [10]) of 4 µg/mL (≈ 13.8 µM) and an MIC (Serratia marcescens) of 2 µg/mL (≈ 6.89 µM). For the same compound, the MIC (Staphylococcus aureus; [11]) was 0.06 µg/mL (≈ 0.207 µM), the MIC (Staphylococcus aureus; [12]) was 0.25 µg/mL (≈ 0.861 µM) and the “souches résistantes” value [4] was 33 souches. The MIC ([3]; strain No. 82, TMP-resistant) was 16 µg/mL (≈ 55.1 µM), the MIC ([3]; strain No. 87, TMP-resistant) was 8 µg/mL (≈ 27.6 µM) and the MIC ([3]; strain No. 101, TMP-resistant) was 16 µg/mL (≈ 55.1 µM). For the same compound, the MIC ([3]; strain No. 102, TMP-resistant) was 16 µg/mL (≈ 55.1 µM), the MIC ([3]; strain No. 107, TMP-resistant) was 64 µg/mL (≈ 220 µM) and the MIC ([3]; strain No. 109, TMP-resistant) was 8 µg/mL (≈ 27.6 µM).
With `COc1cc(Cc2cnc(N)nc2N)cc(OC)c1OC` [TMP, diamino-2,4 (triméthoxy-3,4,5 benzyl)-5 pyrimidine, reference compound] the zone of inhibition at 5 µg/disc [1, 6] was 0 mm, the zone of inhibition at 5 µg/disc [1, 7] was 0 mm and the zone of inhibition at 5 µg/disc [1, 8] was 0 mm. It also gave a zone of inhibition at 5 µg/disc [1, 9] of 0 mm, an MIC [2, 6] of 16 µg/mL (≈ 55.1 µM) and an MIC [2, 7] of over 64 µg/mL. For the same compound, the MIC [2, 8] was 64 µg/mL (≈ 220 µM) and the MIC [2, 9] was over 64 µg/mL.
In the case of `CCOc1cc(I)c(Cc2cnc(N)nc2N)cc1OCC` [Exemple 9, Lactobionate de diamino-2,4 (iodo-2 diéthoxy-4,5 benzyl)-5 pyrimidine], the LD50 [5] was 157 mg/kg.
With `CCOc1cc(I)c(Cc2cnc(N)nc2N)cc1OC` [Ex. 1, diamino-2,4 (iodo-2 éthoxy-4 méthoxy-5 benzyl)-5 pyrimidine] the zone of inhibition at 5 µg/disc [1, 6] was 19 mm, the zone of inhibition at 5 µg/disc [1, 7] was 32 mm and the zone of inhibition at 5 µg/disc [1, 8] was 32 mm. It also gave a zone of inhibition at 5 µg/disc [1, 9] of 24 mm, an MIC [2, 6] of 2 µg/mL (≈ 5 µM) and an MIC [2, 7] of under 0.06 µg/mL. For the same compound, the MIC [2, 8] was 0.12 µg/mL (≈ 0.3 µM) and the MIC [2, 9] was 1 µg/mL (≈ 2.5 µM).
For `COc1cc(Cc2cnc(N)nc2N)c(Br)cc1OC1CCCCC1` [Ex. 24, Iséthionate de diamino-2,4 (bromo-2 cyclohexyloxy-4 méthoxy-5 benzyl)-5 pyrimidine], the MIC (Escherichia coli; 18 h, Escherichia coli 33430) was over 64 µg/mL, the MIC (Escherichia coli; [10]) was over 64 µg/mL and the MIC (Serratia marcescens) was over 64 µg/mL. The MIC (Staphylococcus aureus; [16]) was 0.06 µg/mL (≈ 0.147 µM), the MIC (Staphylococcus aureus; [11]) was 0.06 µg/mL (≈ 0.147 µM) and the MIC (Listeria monocytogenes) was 0.06 µg/mL (≈ 0.147 µM). The CMI (Listeria monocytogenes; [13]) was 0,06 µg/ml, the CMI (Listeria monocytogenes; [14]) was 0,06 µg/ml and the CMI (Listeria monocytogenes; [15]) was 0,06 µg/ml. The MIC ([3]; strain No. 82, TMP-resistant) was 0.5 µg/mL (≈ 1.23 µM), the MIC ([3]; strain No. 87, TMP-resistant) was 1 µg/mL (≈ 2.46 µM) and the MIC ([3]; strain No. 101, TMP-resistant) was 0.5 µg/mL (≈ 1.23 µM). For the same compound, the MIC ([3]; strain No. 102, TMP-resistant) was 0.5 µg/mL (≈ 1.23 µM).
